According to patent publication US10273248B2, “Glucose uptake inhibitors” (Kadmon Corporation LLC, priority 2015, dated 2019):
Counter-ions that a name gives are not always drawn.

Each compound was assayed on glycolysis in HT1080 cells (assay: Glycolysis assay: oligomycin plus compound, cellular ATP by Cell Titer Glo). Conditions: Homo sapiens, HT-1080, 1 h, 10 μM oligomycin, one hour, class symbols.
Assay type: cell-based
Text: Therefore, an assay was developed that utilizes the combination of the glucose uptake inhibitors disclosed herein with oligomycin, a well-characterized inhibitor of ATP synthase. Because oligomycin inhibits ATP derived from oxidative phosphorylation, any remaining ATP production is derived from glycolysis. By reading out cellular ATP levels using the Promega Cell Titer Glo kit, the extent of glycolysis inhibition by the glucose uptake inhibitors disclosed herein can be assessed. […] Utilizing this experimental set-up, the IC50 of glycolysis inhibition for each compound can be determined.
Determination of Glucose Uptake/GLUT Activity (Glycolysis Assay):
HT1080 cells (as well as other cell types) were plated to confluency in 96-well plates. Cells were exposed to the combination of 10 μM Oligomycin (to block mitochondrial-derived ATP) and the glucose uptake inhibitors disclosed herein for one-hour, after which glycolytically-derived ATP was measured with the Cell Titer-Glo assay kit (Promega). Dose-response curves of the glucose uptake inhibitors disclosed herein were used to determine the IC50 for GLUT activity.

First: Cn1ncc2c(Nc3ccc(-c4cn[nH]c4)cc3)nc(-c3cccc(OCC(=O)NC4CCC4)c3)nc21 [Example 54, 2-(3-(4-((4-(1H-pyrazol-4-yl)phenyl)amino)-1-methyl-1H-pyrazolo[3,4-d]pyrimidin-6-yl)phenoxy)-N-cyclobutylacetamide]
Second: Cn1ncc2c(Nc3ccc(-c4cn[nH]c4)cc3)nc(-c3cccc(OCC(=O)NC4CCCC4)c3)nc21 [Example 56, 2-(3-(4-((4-(1H-pyrazol-4-yl)phenyl)amino)-1-methyl-1H-pyrazolo[3,4-d]pyrimidin-6-yl)phenoxy)-N-cyclopentylacetamide]
The IC50 of the first is higher: 251 to 500 nM for the first, 101 to 250 nM for the second. The second is the more potent here.

First: CC(C)NC(=O)COc1cccc(-c2nc(Nc3ccc(-c4cn[nH]c4)cc3)c3cnn(C)c3n2)c1 [Example 55, 2-(3-(4-((4-(1H-pyrazol-4-yl)phenyl)amino)-1-methyl-1H-pyrazolo[3,4-d]pyrimidin-6-yl)phenoxy)-N-isopropylacetamide]
Second: CC(C)CNC(=O)COc1cccc(-c2nc(Nc3ccc(-c4cn[nH]c4)cc3)c3cnn(C)c3n2)c1 [Example 57, 2-(3-(4-((4-(1H-pyrazol-4-yl)phenyl)amino)-1-methyl-1H-pyrazolo[3,4-d]pyrimidin-6-yl)phenoxy)-N-isobutylacetamide]
The IC50 of the first is higher: 251 to 500 nM for the first, 101 to 250 nM for the second. The second is the more potent here.

`CC(C)NC(=O)COc1cccc(-c2nc(Nc3ccc(-c4cn[nH]c4)cc3)c3c(cnn3C)n2)c1` [Example 58, 2-(3-(7-((4-(1H-pyrazol-4-yl)phenyl)amino)-1-methyl-1H-pyrazolo[4,3-d]pyrimidin-5-yl)phenoxy)-N-isopropylacetamide] and `CC(C)CNC(=O)COc1cccc(-c2nc(Nc3ccc(-c4cn[nH]c4)cc3)c3c(cnn3C)n2)c1` [Example 61, 2-(3-(7-((4-(1H-pyrazol-4-yl)phenyl)amino)-1-methyl-1H-pyrazolo[4,3-d]pyrimidin-5-yl)phenoxy)-N-isobutylacetamide] cannot be ordered by IC50: over 1000 nM for the first, over 1000 nM for the second.

First: Cn1ncc2nc(-c3cccc(OCC(=O)NC4CCC4)c3)nc(Nc3ccc(-c4cn[nH]c4)cc3)c21 [Example 59, 2-(3-(7-((4-(1H-pyrazol-4-yl)phenyl)amino)-1-methyl-1H-pyrazolo[4,3-d]pyrimidin-5-yl)phenoxy)-N-cyclobutylacetamide]
Second: Cn1ncc2nc(-c3cccc(OCC(=O)NC4CCCC4)c3)nc(Nc3ccc(-c4cn[nH]c4)cc3)c21 [Example 60, 2-(3-(7-((4-(1H-pyrazol-4-yl)phenyl)amino)-1-methyl-1H-pyrazolo[4,3-d]pyrimidin-5-yl)phenoxy)-N-cyclopentylacetamide]
The IC50 of the first is higher: over 1000 nM for the first, 501 to 1000 nM for the second. The second is the more potent here.

`CC(C)NC(=O)COc1cccc(-c2nc(Nc3ccc(-c4cn[nH]c4)cc3)c3ccncc3n2)c1` [Example 62, 2-(3-(4-((4-(1H-pyrazol-4-yl)phenyl)amino)pyrido[3,4-d]pyrimidin-2-yl)phenoxy)-N-isopropylacetamide] and `O=C(COc1cccc(-c2nc(Nc3ccc(-c4cn[nH]c4)cc3)c3ccncc3n2)c1)NC1CCC1` [Example 63, 2-(3-(4-((4-(1H-pyrazol-4-yl)phenyl)amino)pyrido[3,4-d]pyrimidin-2-yl)phenoxy)-N-cyclobutylacetamide] fall in the same range of IC50: 10 to 100 nM for the first, 10 to 100 nM for the second.

Compared with `O=C(COc1cccc(-c2nc(Nc3ccc(-c4cn[nH]c4)cc3)c3ccncc3n2)c1)NC1CCCC1` [Example 64, 2-(3-(4-((4-(1H-pyrazol-4-yl)phenyl)amino)pyrido[3,4-d]pyrimidin-2-yl)phenoxy)-N-cyclopentylacetamide], `O=C(COc1cccc(-c2nc(Nc3ccc(-c4cn[nH]c4)cc3)c3ncsc3n2)c1)NC1CCCC1` [Example 67, 2-(3-(7-((4-(1H-pyrazol-4-yl)phenyl)amino)thiazolo[5,4-d]pyrimidin-5-yl)phenoxy)-N-cyclopentylacetamide] is higher in IC50: 10 to 100 nM for the first, 101 to 250 nM for the second.

`CC(C)NC(=O)COc1cccc(-c2nc(Nc3ccc(-c4cn[nH]c4)cc3)c3ncsc3n2)c1` [Example 65, 2-(3-(7-((4-(1H-pyrazol-4-yl)phenyl)amino)thiazolo[5,4-d]pyrimidin-5-yl)phenoxy)-N-isopropylacetamide] and `CC(C)CNC(=O)COc1cccc(-c2nc(Nc3ccc(-c4cn[nH]c4)cc3)c3ncsc3n2)c1` [Example 68, 2-(3-(7-((4-(1H-pyrazol-4-yl)phenyl)amino)thiazolo[5,4-d]pyrimidin-5-yl)phenoxy)-N-isobutylacetamide] fall in the same range of IC50: 251 to 500 nM for the first, 251 to 500 nM for the second.

Compared with `O=C(COc1cccc(-c2nc(Nc3ccc(-c4cn[nH]c4)cc3)c3ncsc3n2)c1)NC1CCC1` [Example 66, 2-(3-(7-((4-(1H-pyrazol-4-yl)phenyl)amino)thiazolo[5,4-d]pyrimidin-5-yl)phenoxy)-N-cyclobutylacetamide], `O=C(COc1cccc(-c2nc3c(c(Nc4ccc(-c5cn[nH]c5)cc4)n2)CSC3)c1)NC1CCC1` [Example 86, 2-(3-(4-((4-(1H-pyrazol-4-yl)phenyl)amino)-5,7-dihydrothieno[3,4-d]pyrimidin-2-yl)phenoxy)-N-cyclobutylacetamide] is lower in IC50: 251 to 500 nM for the first, 101 to 250 nM for the second. The second is the more potent here.

`O=C(Nc1cccc(-c2nc3c(c(Nc4ccc(-c5cn[nH]c5)cc4)n2)COC3)c1)c1cncc(Cl)c1` [Example 69, N-(3-(4-((4-(1H-pyrazol-4-yl)phenyl)amino)-5,7-dihydrofuro[3,4-d]pyrimidin-2-yl)phenyl)-5-chloronicotinamide] and `Cc1cncc(C(=O)Nc2cccc(-c3nc4c(c(Nc5ccc(-c6cn[nH]c6)cc5)n3)COC4)c2)c1` [Example 73, N-(3-(4-((4-(1H-pyrazol-4-yl)phenyl)amino)-5,7-dihydrofuro[3,4-d]pyrimidin-2-yl)phenyl)-5-methylnicotinamide] fall in the same range of IC50: 10 to 100 nM for the first, 10 to 100 nM for the second.

`CC(C)(C)NC(=O)COc1cccc(-c2nc3c(c(Nc4ccc(-c5cn[nH]c5)cc4)n2)COC3)c1` [Example 70, 2-(3-(4-((4-(1H-pyrazol-4-yl)phenyl)amino)-5,7-dihydrofuro[3,4-d]pyrimidin-2-yl)phenoxy)-N-(tert-butyl)acetamide dihydrochloride] and `CC(C)(C)CNC(=O)COc1cccc(-c2nc3c(c(Nc4ccc(-c5cn[nH]c5)cc4)n2)COC3)c1` [Example 79, 2-(3-(4-((4-(1H-pyrazol-4-yl)phenyl)amino)-5,7-dihydrofuro[3,4-d]pyrimidin-2-yl)phenoxy)-N-neopentylacetamide] fall in the same range of IC50: 10 to 100 nM for the first, 10 to 100 nM for the second.

First: Cc1ccc(C(=O)Nc2cccc(-c3nc4c(c(Nc5ccc(-c6cn[nH]c6)cc5)n3)COC4)c2)cn1 [Example 72, N-(3-(4-((4-(1H-pyrazol-4-yl)phenyl)amino)-5,7-dihydrofuro[3,4-d]pyrimidin-2-yl)phenyl)-6-methylnicotinamide]
Second: Cc1ccncc1C(=O)Nc1cccc(-c2nc3c(c(Nc4ccc(-c5cn[nH]c5)cc4)n2)COC3)c1 [Example 74, N-(3-(4-((4-(1H-pyrazol-4-yl)phenyl)amino)-5,7-dihydrofuro[3,4-d]pyrimidin-2-yl)phenyl)-4-methylnicotinamide]
The IC50 of the first is lower: 10 to 100 nM for the first, 101 to 250 nM for the second. The first is the more potent here.

`O=C(Nc1cccc(-c2nc3c(c(Nc4ccc(-c5cn[nH]c5)cc4)n2)COC3)c1)c1cncc(F)c1` [Example 75, N-(3-(4-((4-(1H-pyrazol-4-yl)phenyl)amino)-5,7-dihydrofuro[3,4-d]pyrimidin-2-yl)phenyl)-5-fluoronicotinamide] and `COc1cncc(C(=O)Nc2cccc(-c3nc4c(c(Nc5ccc(-c6cn[nH]c6)cc5)n3)COC4)c2)c1` [Example 80, N-(3-(4-((4-(1H-pyrazol-4-yl)phenyl)amino)-5,7-dihydrofuro[3,4-d]pyrimidin-2-yl)phenyl)-5-methoxynicotinamide] fall in the same range of IC50: 10 to 100 nM for the first, 10 to 100 nM for the second.

`CCC(CC)NC(=O)COc1cccc(-c2nc3c(c(Nc4ccc(-c5cn[nH]c5)cc4)n2)COC3)c1` [Example 76, 2-(3-(4-((4-(1H-pyrazol-4-yl)phenyl)amino)-5,7-dihydrofuro[3,4-d]pyrimidin-2-yl)phenoxy)-N-(pentan-3-yl)acetamide dihydrochloride] and `CCC(C)NC(=O)COc1cccc(-c2nc3c(c(Nc4ccc(-c5cn[nH]c5)cc4)n2)COC3)c1` (stereo not drawn) [Example 77, 2-(3-(4-((4-(1H-pyrazol-4-yl)phenyl)amino)-5,7-dihydrofuro[3,4-d]pyrimidin-2-yl)phenoxy)-N-(sec-butyl)acetamide] fall in the same range of IC50: 10 to 100 nM for the first, 10 to 100 nM for the second.

First: CC(C)CNC(=O)COc1cccc(-c2nc3c(c(Nc4ccc(-c5cn[nH]c5)cc4)n2)COC3)c1 [Example 78, 2-(3-(4-((4-(1H-pyrazol-4-yl)phenyl)amino)-5,7-dihydrofuro[3,4-d]pyrimidin-2-yl)phenoxy)-N-isobutylacetamide]
Second: O=C(COc1cccc(-c2nc3c(c(Nc4ccc(-c5cn[nH]c5)cc4)n2)COC3)c1)NC1CC(F)(F)C1 [Example 82, 2-(3-(4-((4-(1H-pyrazol-4-yl)phenyl)amino)-5,7-dihydrofuro[3,4-d]pyrimidin-2-yl)phenoxy)-N-(3,3-difluorocyclobutyl)acetamide]
The IC50 of the first is lower: 10 to 100 nM for the first, 101 to 250 nM for the second. The first is the more potent here.

First: CC(C)NC(=O)COc1cccc(-c2nc3c(c(Nc4ccc(-c5cn[nH]c5)cc4)n2)CSC3)c1 [Example 84, 2-(3-(4-((4-(1H-pyrazol-4-yl)phenyl)amino)-5,7-dihydrothieno[3,4-d]pyrimidin-2-yl)phenoxy)-N-isopropylacetamide]
Second: O=C(COc1cccc(-c2nc3c(c(Nc4ccc(-c5cn[nH]c5)cc4)n2)CSC3)c1)NC1CCCC1 [Example 87, 2-(3-(4-((4-(1H-pyrazol-4-yl)phenyl)amino)-5,7-dihydrothieno[3,4-d]pyrimidin-2-yl)phenoxy)-N-cyclopentylacetamide]
The IC50 of the first is higher: 251 to 500 nM for the first, 101 to 250 nM for the second. The second is the more potent here.
